Measurements from US20220296718A1, “EXCIPIENT FOR BIOTHERAPEUTICS” (Ludwig-Maximilians-Universität München, priority 2019, published 2022).

Key:
Format in all cases: physicochemical
[1] = tested on: IgG antibody trastuzumab; assay: Particle formation after freezing/thawing stress of trastuzumab (flow imaging microscopy); details: 50 mM phosphate buffer, pH 7.0; 5 mg/ml trastuzumab; 50 mM excipient; FIG. 1
Experimental: (§1) Production of Test Solutions: The buffer solution consisted of 50 mM sodium phosphate at pH 7.0. Protein stock solutions were liberated from other excipients by IEX chromatography to remove potential impurities and surfactants and by dialysis over 24 h in buffer solution 100-200 times of their volumes. The buffer solution was renewed after 3 hours and after 14 hours. Stock solutions of test excipients were produced by dissolving 500 mM of the excipient in 90% of the required amount of buffer solution. After that, the pH was adjusted and the remaining volume of buffer solution was added. Then, the solution was filtered with a 0.22 μm filter. The corresponding amount of protein stock solution was added. Sufficient homogenization was provided.
(§2) Freeze/Thaw-Cycle: The protein-containing solutions were filled into cleaned 2R vials and crimped. The samples were frozen from 20° C. to −50° C. in 3 cycles at a rate of 2K/min in a Christ 2D-6 freeze dryer and then thawed at room temperature until the entire sample had reached the liquid state, before the cycle was started again.
(§3) Flow Imaging Microscopy: 165 μl of the sample solution were measured at 10× magnification using a flow imaging microscope (FlowCam, Fluid Imaging Technologies, Inc., Scarborough, Me., USA).
(§4) The resulting solutions were subjected to freezing/thawing stress and stirring stress.

[2] = tested on: recombinant IgG antibody, either rituximab or omalizumab; assay: Particles and turbidity (visual inspection) after freezing/thawing and stirring stress of rituximab or omalizumab; details: 10 mg/ml rituximab or omalizumab, 20 mM histidine pH 6.0, 75 mM excipient; compared with trehalose, sucrose, or trehalose or sucrose with methionine
Experimental: as §1, with “of 20” for “of 50”, “mM histidine buffer” for “mM sodium phosphate at”, “pH 6.0.” for “pH 7.0.”, “excipients” for “excipients by IEX chromatography to remove potential impurities and surfactants and”, “after 6” for “after 3”, “after 20” for “after 14”
Freeze/Thaw-Cycle: The protein-containing solutions were filled into cleaned 6R vials and crimped. The samples were frozen from 20° C. to −70° C. in 5 cycles in a freezer and then thawed at room temperature until the entire sample had reached the liquid state, before the cycle was started again.
Stirring Stress: The protein-containing solutions were filled into cleaned 6R vials and crimped. Afterwards, the samples were stirred for 2 h at 200 rpm with a magnetic stirrer (Variomag Poly 15, Thermofisher, 5 mm polytetrafluoroethylene—coated stirring bars).
Visual inspection: 3 Vials of each formulation were visually inspected according to the method described in the European Pharmacopoeia. […]

[3] = tested on: IgG antibody trastuzumab; assay: Particle formation after stirring stress of trastuzumab (flow imaging microscopy); details: 50 mM phosphate buffer, pH 7.0; 5 mg/ml trastuzumab; 50 mM excipient; 2 h at 200 rpm; FIG. 2
Experimental: as §1
Stirring Stress: The protein-containing solutions were filled into cleaned 2R vials and crimped. Afterwards, the samples were stirred for 2 h at 200 rpm with a magnetic stirrer (Variomag Poly 15, Thermofisher, 3 mm polytetrafluoroethylene—coated stirring bars).
as §3, §4

[4] = target: interferon-alpha-2a (Homo sapiens, UniProt P01563, R46K); assay: Particle formation after freezing/thawing stress of interferon-alpha-2a; details: 50 mM phosphate buffer, pH 7.0; 1 mg/ml interferon-alpha-2a; 50 mM excipient; FIG. 3
Sequence of interferon-alpha-2a (P01563 24-188 R46K): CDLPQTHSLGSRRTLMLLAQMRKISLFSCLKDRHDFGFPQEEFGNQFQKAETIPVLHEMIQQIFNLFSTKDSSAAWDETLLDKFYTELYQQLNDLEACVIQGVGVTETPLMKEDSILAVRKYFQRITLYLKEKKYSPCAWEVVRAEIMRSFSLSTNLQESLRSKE
Experimental: as §1, §2, §3
The resulting solutions were subjected to freeze/thawing stress.

[5] = Solubility in water, classification of the European Pharmacopoeia
Experimental: In certain embodiments, the diamide has a solubility in water of at least about 0.02% (w/v), of at least about 0.05% (w/v), of at least about 0.1% (w/v), of at least about 0.5% (w/v) or of at least about 1% (w/v) at 20° C., e.g. as determined by the column elution method according to the OECD Guidelines, Test No. 105. Preferably, the diamide is considered as soluble, well soluble or freely soluble according to the classifications of the European Pharmacopoeia, which is herein incorporated by reference.

[6] = target: recombinant anakinra (Homo sapiens, UniProt P18510); assay: Particles and turbidity after freezing/thawing and stirring stress of anakinra; details: 50 mg/ml anakinra, 20 mM citrate pH 6.5, 50 mM excipient, freezing/thawing and 3 h stirring stress
Sequence of recombinant anakinra (P18510 with tags, fused parts or gaps): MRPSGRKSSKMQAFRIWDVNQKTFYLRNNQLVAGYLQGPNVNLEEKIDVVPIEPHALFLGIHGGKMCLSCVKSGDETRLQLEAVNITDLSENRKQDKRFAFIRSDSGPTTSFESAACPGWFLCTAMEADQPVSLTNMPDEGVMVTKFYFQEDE
Experimental: (§5) The production of test solutions, the freeze/thaw-cycle, the measurement of stirring stress and the visual inspection were performed substantially as described in Example 4.
The buffer solution consisted of 20 mM citrate buffer pH 6.5. The samples were stirred for 3 h.
N,N,N′,N′-tetrakis-(2-hydroxyethyl) adipinic acid amide (Ark Pharm Inc.), D(+) or trehalose (Sigma-Aldrich), or polysorbate 80, was added as a test excipient to an aqueous solution containing recombinant anakinra. […] In the case of polysorbate 80 its concentration was 0.05%. The resulting solutions were subjected to freezing/thawing stress and stirring stress.

[7] = target: T1, recombinant G-CSF (Homo sapiens, UniProt P09919); assay: Particles and turbidity after freezing/thawing and stirring stress of G-CSF; details: 1 mg/ml G-CSF, 10 mM acetate pH 4.5, 50 mM excipient; compared with trehalose, sucrose, or trehalose or sucrose with methionine
T1 sequence (P09919 31-207): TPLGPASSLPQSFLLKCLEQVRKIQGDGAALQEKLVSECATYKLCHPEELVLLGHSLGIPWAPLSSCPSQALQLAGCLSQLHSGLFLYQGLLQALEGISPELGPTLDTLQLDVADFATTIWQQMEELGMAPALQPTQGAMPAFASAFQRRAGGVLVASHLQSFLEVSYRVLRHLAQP
Experimental: as §5
The buffer solution consisted of 10 mM acetate buffer pH 4.5 and was renewed after 4 hours and after 16 hours. For the freeze/thaw cycle and the measurements of stirring stress, 2R vials were used.
N,N,N′,N′-tetrakis-(2-hydroxyethyl) adipinic acid amide (Ark Pharm Inc.), D(+) trehalose (Sigma-Aldrich), sucrose, and mixtures of trehalose or sucrose with methionine (Sigma-Aldrich) respectively, was added as a test excipient to an aqueous solution containing recombinant G-CSF. […] In the case of sucrose or trehalose mixtures with methionine, the concentration of the sugar was 50 mM, and the concentration of methionine was 20 mM. The resulting solutions were subjected to freezing/thawing stress and stirring stress.

Compound	Amount of particles after 3 freezing/thawing cycles [1]	Particles in stressed formulations [2]	Turbidity of stressed formulations [2]	Amount of particles after stirring stress [3]	Amount of particles after 3 freezing/thawing cycles [4]	Solubility according to the classification of the European Pharmacopoeia [5]	Particles in stressed formulations, compared with trehalose [6]	Turbidity of stressed formulations, compared with trehalose [6]	Particles in stressed formulations, compared with polysorbate 80 ([6]; polysorbate 80 at 0.05%)	Turbidity of stressed formulations, compared with polysorbate 80 ([6]; polysorbate 80 at 0.05%)	Particles in stressed formulations [7]	Turbidity of stressed formulations [7]
O=C(CCCCC(=O)N(CCO)CCO)N(CCO)CCO [compound A, N,N,N′,N′-tetrakis-(2-hydroxyethyl) adipinic acid amide]	less particles than formulations comprising standard excipients like, glycerol, NaCl, or D(+) trehalose or formulations without any excipients	less particles	less turbid	less particles than formulations comprising standard excipients like, glycerol, NaCl, or D(+) trehalose or formulations without any excipients	less particles than formulations without any excipient and formulations with arginine or polysorbate 20	well soluble	less particles	less turbid	about equally low amounts of particles	about equally low in turbidity	less particles	less turbid
Polysorbate 20 [reference compound]	even less particles	–	–	–	–	–	–	–	–	–	–	–
